One data set deals with DENV-1 strain TC974#666. In words: Tetravalent RT-qPCR assay, serotype 1. It counts as cell-based. As to conditions: Dengue virus, DENV1, Vero, 72 h. The protocol:
(§1) The antiviral activity of the compounds of the invention was tested against DENV-1 strain TC974#666 (NCPV), DENV-2 strain 16681, DENV-3 strain H87 (NCPV) and DENV-4 strain H241 (NCPV) in a RT-qPCR assay. Therefore, Vero cells were infected with either DENV-1, or -2, or -3, or -4 in the presence or absence of test compounds. At day 3 post-infection, the cells were lysed and cell lysates were used to prepare cDNA of both a viral target (the 3′UTR of DENV; Table 2) and a cellular reference gene (β-actin, Table 2). Subsequently, a duplex real time PCR was performed on a Lightcycler480 instrument. The generated Cp value is inversely proportional to the amount of RNA expression of these targets. Inhibition of DENV replication by a test compound results in a shift of Cp's for the 3′UTR gene. On the other hand, if a test compound is toxic to the cells, a similar effect on β-actin expression will be observed. The comparative ΔΔCp method is used to calculate EC50, which is based on the relative gene expression of the target gene (3′UTR) normalized with the cellular housekeeping gene (β-actin). In addition, CC50 values are determined based on the Cp values acquired for the housekeeping gene β-actin.
(§2) The culture medium consisted of minimal essential medium supplemented with 2% of heat-inactivated fetal calf serum, 0.04% gentamycin (50 mg/mL) and 2 mM of L-glutamine. Vero cells, obtained from ECACC, were suspended in culture medium and 75 μL/well was added in 96-well plates (10000 cells/well), which already contain the antiviral compounds. […] In addition, each plate contains wells which are assigned as virus controls (containing cells and virus in the absence of compound) and cell controls (containing cells in the absence of virus and compound). Once the cells were added in the plates, the plates were incubated in a fully humidified incubator (37° C., 5% CO2) until the next day. Dengue viruses serotype-1, -2, -3 and -4 were diluted in order to obtain a Cp of ˜22-24 in the assay. Therefore, 25 μL of virus suspension was added to all the wells containing test compound and to the wells assigned as virus control. In parallel, 25 μL of culture medium was added to the cell controls. Next, the plates were incubated for 3 days in a fully humidified incubator (37° C., 5% CO2). After 3 days, the supernatant was removed from the wells and the cells were washed twice with ice-cold PBS (˜100 μL). The cell pellets within the 96-well plates were stored at −80° C. for at least 1 day. Next, RNA was extracted using the Cells-to-CT^Tm lysis kit, according to the manufacturer's guideline (Life Technologies). The cell lysates can be stored at −80° C. or immediately used in the reverse transcription step.
(§3) In preparation of the reverse transcription step, mix A (table 3A) was prepared and 7.57 μL/well was dispensed in a 96-well plate. After addition of 5 μL of the cell lysates, a five minute denaturation step at 75° C. was performed (table 3B). Afterwards, 7.43 μL of mix B was added (table 3C) and the reverse transcription step was initiated (table 3D) to generate cDNA.
(§4) Finally, a RT-qPCR mix was prepared, mix C (table 4A), and 22.02 μL/well was dispensed in 96-well LightCycler qPCR plates to which 3 μL of cDNA was added and the qPCR was performed according to the conditions in table 4B on a LightCycler 480.
(§5) Using the LightCycler software and an in-house LIMS system, dose response curves for each compound were calculated and the half maximal effective concentration (EC50) and the half maximal cytotoxic concentration (CC50) were determined (Tables 5-8).
In general terms: Real-time PCR tracks product formation cycle by cycle.

Another data set concerns DENV-2 16681 strain. In words: DENV-2 antiviral assay (eGFP fluorescence). It is filed as cell-based, Dengue virus. The conditions noted are these: DENV-2 16681 eGFP, Vero cells, MOI 0.5, 3 days. The protocol: The antiviral activity of all the compounds of the invention was tested against the DENV-2 16681 strain which was labeled with enhanced green fluorescent protein (eGPF). The culture medium consists of minimal essential medium supplemented with 2% of heat-inactivated fetal calf serum, 0.04% gentamycin (50 mg/mL) and 2 mM of L-glutamine. Vero cells, obtained from ECACC, were suspended in culture medium and 25 μL was added to 384-well plates (2500 cells/well), which already contain the antiviral compounds. Typically, these plates contain a 5-fold serial dilution of 9 dilution steps of the test compound at 200 times the final concentration in 100% DMSO (200 nL). […] Finally, each plate contains wells which are assigned as virus controls (containing cells and virus in the absence of compound), cell controls (containing cells in the absence of virus and compound) and medium controls (containing medium in the absence of cells, virus and compounds). To the wells assigned as medium control, 25 μL of culture medium was added instead of Vero cells. Once the cells were added to the plates, the plates were incubated for 30 minutes at room temperature to allow the cells to distribute evenly within the wells. Next, the plates were incubated in a fully humidified incubator (37° C., 5% CO2) until the next day. Then, DENV-2 strain 16681, labeled with eGFP, was added at a multiplicity of infection (MOI) of 0.5. Therefore, 15 μL of virus suspension was added to all the wells containing test compound and to the wells assigned as virus control. In parallel, 15 μL of culture medium was added to the medium and cell controls. Next, the plates were incubated for 3 days in a fully humidified incubator (37° C., 5% CO2). At the day of the read out, the eGFP fluorescence was measured using an automated fluorescence microscope at 488 nm (blue laser). Using an in-house LIMS system, inhibition dose response curves for each compound were calculated and the half maximal effective concentration (EC50) was determined. Therefore, the percent inhibition (I) for every test concentration is calculated using the following formula: I=100*(ST-SCC)/(SVC-SCC); ST, SCC and SVC are the amount of eGFP signal in the test compound, cell control and virus control wells, respectively. The EC50, represents the concentration of a compound at which the virus replication is inhibited with 50%, as measured by a 50% reduction of the eGFP fluorescent intensity compared to the virus control. The EC50 is calculated using linear interpolation (Table 1).

The subject of a further data set is DENV-3 strain H87. In words: Tetravalent RT-qPCR assay, serotype 3. It counts as cell-based. As to conditions: Dengue virus, DENV3, 72 h; RT-qPCR serotype 3 H87, Protocol A, Vero cells, day 3. Here is the method: as §1, §2, §3, §4, §5
The subject of another data set is Vero cells. As to conditions: African green monkey.
The subject of a further data set is DENV-4 strain H241. Briefly: Tetravalent RT-qPCR assay, serotype 4. The conditions noted are these: Dengue virus, DENV4, 72 h; RT-qPCR serotype 4 H241, Protocol A, Vero cells, day 3. It is filed as cell-based. Here is the method:
as §1, §2, §3, §4, §5

The test system of a further data set is DENV-2 strain 16681. Briefly: Tetravalent RT-qPCR assay, serotype 2. The conditions noted are these: Dengue virus, DENV2, 72 h; RT-qPCR serotype 2 16681, Protocol A, Vero cells, day 3. It counts as cell-based. Here is the method: as §1, §2, §3, §4, §5

Counter-ions that a name gives are not always drawn.

Broadly, the melting point is the temperature of the solid-liquid transition. `COc1cc(NC(C(=O)N2CCc3ccc(OC(F)(F)F)cc32)c2ccc(Cl)cc2OC)cc(OCCCC(=O)O)c1` (racemic) (as salt: HCl) [Compound 8, 4-(3-((1-(4-chloro-2-methoxyphenyl)-2-oxo-2-(6-(trifluoro-methoxy)indolin-1-yl)ethyl)amino)-5-methoxyphenoxy)butanoic acid] showed a melting point of 139 °C.
On the same count and under the same terms, under `COc1cc(NC(C(=O)N2CCc3ccc(C(F)(F)F)cc32)c2ccc(Cl)cc2F)cc(OCCCC(=O)O)c1` (racemic) (as salt: HCl) [Compound 9, 4-(3-((1-(4-chloro-2-fluorophenyl)-2-oxo-2-(6-(trifluoromethyl)indolin-1-yl)ethyl)amino)-5-methoxy-phenoxy)butanoic acid] stands 110 °C; under `COc1cc(NC(C(=O)N2CCc3cc(OC)c(C(F)(F)F)cc32)c2ccc(Cl)cc2OC)cc(OCCCC(=O)O)c1` (racemic) (as salt: HCl) [Compound 7, 4-(3-((1-(4-chloro-2-methoxyphenyl)-2-(5-methoxy-6-(trifluoromethyl)indolin-1-yl)-2-oxoethyl)amino)-5-methoxyphenoxy)butanoic acid], 160 °C.
As usually defined, the EC50 is the concentration that produces a half-maximal response. Broadly, the CC50 is the concentration at which the toxic effect on the cells reaches its halfway point. `COc1cc(NC(C(=O)N2CCc3ccc(OC(F)(F)F)cc32)c2ccc(F)cc2)cc(OCCCC(=O)O)c1` (single isomer, unassigned) [Compound 2B]: the EC50 in the data set with DENV-1 strain TC974#666 stood at 0.3 nM; with DENV-2 16681 strain it was 0.24 nM; with DENV-3 strain H87, 4.6 nM; in the data set on DENV-4 strain H241, 30 nM; in the data set with DENV-2 strain 16681, 0.28 nM. In addition, the CC50 with Vero cells worked out at 20000 nM.
For `COc1cc(NC(C(=O)N2CCc3cc(OC)c(C(F)(F)F)cc32)c2ccc(Cl)cc2F)cc(OCCCC(=O)O)c1` (single isomer, unassigned) [Compound 11B], the 50% effective concentration (EC50) with DENV-1 strain TC974#666 worked out at 0.67 nM; in the data set on DENV-2 16681 strain it was 0.15 nM; in the data set with DENV-3 strain H87, 5.4 nM; with DENV-4 strain H241 it was 22 nM; in the data set on DENV-2 strain 16681, 0.17 nM. In the data set on Vero cells, this compound displayed a CC50 of 12000 nM.
Regarding `COc1cc(NC(C(=O)N2CCc3cc(OC)c(C(F)(F)F)cc32)c2ccc(Cl)cc2)cc(OCCCC(=O)O)c1` (racemic) (as salt: HCl) [Compound 5, 4-(3-((1-(4-chlorophenyl)-2-(5-methoxy-6-(trifluoromethyl)indolin-1-yl)-2-oxoethyl)amino)-5-methoxyphenoxy)butanoic Acid], the melting point was found to be 130 °C.
Still for that read-out and setting: under `COc1cc(NC(C(=O)N2CCc3ccc(OC(F)(F)F)cc32)c2ccc(F)cc2)cc(OCCCC(=O)O)c1` (racemic) (as salt: HCl) [Compound 2, 4-(3-((1-(4-fluorophenyl)-2-oxo-2-(6-(trifluoromethoxy)indolin-1-yl)ethyl)amino)-5-methoxyphenoxy)butanoic acid] stands 136 °C.
In the case of `COc1cc(NC(C(=O)N2CCc3ccc(OC(F)(F)F)cc32)c2ccc(Cl)cc2OC)cc(OCCCC(=O)O)c1` (single isomer, unassigned) [Compound 8B], the EC50 is 0.15 nM with DENV-1 strain TC974#666; 0.066 nM in the data set with DENV-2 16681 strain; 1 nM in the data set with DENV-3 strain H87; 12 nM in the data set with DENV-4 strain H241; 0.062 nM with DENV-2 strain 16681. In addition, the midpoint of cytotoxicity in the data set with Vero cells, the CC50, lay at 14000 nM.
For the compound `COc1cc(NC(C(=O)N2CCc3cc(OC)c(C(F)(F)F)cc32)c2ccc(Cl)cc2F)cc(OCCCC(=O)O)c1` (racemic) (as salt: HCl) [Compound 11, 4-(3-((1-(4-chloro-2-fluorophenyl)-2-(5-methoxy-6-(trifluoromethyl)indolin-1-yl)-2-oxoethyl)amino)-5-methoxyphenoxy)butanoic acid], the melting point was found to be 121 °C.
The same measure, in the same setting: to `COc1cc(NC(C(=O)N2CCc3ccc(C(F)(F)F)cc32)c2ccc(Cl)cc2OC)cc(OCCCC(=O)O)c1` (racemic) (as salt: HCl) [Compound 6, 4-(3-((1-(4-chloro-2-methoxyphenyl)-2-oxo-2-(6-(trifluoro-methyl)indolin-1-yl)ethyl)amino)-5-methoxyphenoxy)butanoic acid] belongs 178 °C.
As to `COc1cc(NC(C(=O)N2CCc3cc(OC)c(OC(F)(F)F)cc32)c2ccc(Cl)cc2)cc(OCCCC(=O)O)c1` (single isomer, unassigned) [Compound 12B], the 50% effective concentration (EC50) in the data set on DENV-1 strain TC974#666 was determined as 0.68 nM; in the data set on DENV-2 16681 strain, 0.35 nM; in the data set on DENV-3 strain H87 it was 4.1 nM; in the data set with DENV-4 strain H241, 28 nM; with DENV-2 strain 16681, 0.22 nM. The CC50 in the data set with Vero cells was 12000 nM.
`COc1cc(NC(C(=O)N2CCc3cc(OC)c(C(F)(F)F)cc32)c2ccc(Cl)cc2)cc(OCCCC(=O)O)c1` (single isomer, unassigned) [Compound 5B]: the EC50 is 0.74 nM in the data set with DENV-1 strain TC974#666; 0.18 nM in the data set with DENV-2 16681 strain; 4.6 nM in the data set with DENV-3 strain H87; 24 nM in the data set with DENV-4 strain H241; 0.17 nM in the data set on DENV-2 strain 16681. In addition, the CC50 in the data set on Vero cells was determined as 13000 nM.
With `COc1cc(NC(C(=O)N2CCc3cc(OC)c(C(F)(F)F)cc32)c2ccc(Cl)cc2OC)cc(OCCCC(=O)O)c1` (single isomer, unassigned) [Compound 7B], the EC50 in the data set on DENV-1 strain TC974#666 is 0.61 nM; in the data set on DENV-2 16681 strain, 0.17 nM; with DENV-3 strain H87, 5.8 nM; in the data set with DENV-4 strain H241, 25 nM; in the data set on DENV-2 strain 16681, 0.28 nM. In addition, the CC50 with Vero cells turned out to be 13000 nM.

These data come from patent US10689340B2, “Substituted indoline derivatives as dengue viral replication inhibitors” (priority 2016, dated 2020).
